From patent US20220251080A1, “SUBSTANTIALLY PURE VENETOCLAX AND AMORPHOUS VENETOCLAX IN A FREE DRUG PARTICULAT E FORM” (DR. REDDY'S LABORATORIES LIMITED, priority 2019, published 2022)

Key:
[1] = Flow property measurement of powder (bulk density, tapped density, Hausner ratio, Carr's index); assay type: physicochemical; settings: for Carr's index: (tapped density-bulk density)/tapped density×100; for Tapped density: after mechanical tapping; for Hausner ratio: calculated from bulk and tapped density; for Bulk density: untapped powder sample
Text: (§1) As per the flow property measurement, powder obtained by reactive agglomeration has better flow indices (Carr's index and Hausner ratio) than powder obtained by solvent-antisolvent process, disclosed in example 24 of WO2017212431.
The term “bulk density” as used herein refers to the ratio of the mass to the volume (including the interparticulate void volume) of an untapped powder sample.
The term “tapped density” as used herein and it is obtained by mechanically tapping a graduated cylinder containing the sample until little further volume change is observed.
The tapping can be performed using different methods. The tapped density is calculated as mass divided by the final volume of the powder.
The term “carr's index” as used herein and it is calculated using below formula Carr Index =(tapped density-bulk density)/tapped density×100.
The term “hausner ratio” as used herein and it is calculated using below formula Hausner Ratio […]

[2] = Filtration characteristics (specific cake resistance); assay type: physicochemical; settings: filtration of the suspension from the process
Text: as §1
The term “specific cake resistance” as used herein refers to filter cake is formed by the substances that are retained on a filter. The filter cake grows in the course of filtration, becoming thicker as particulate matter is retained. With increasing layer thickness, the flow resistance of the filter cake increases. Specific cake resistance is a measure of this resistance offered by cake towards the flow.

| Carr's index [1] | Tapped density [1] [g/mL] | Hausner ratio [1] | Bulk density [1] [g/mL] | Specific cake resistance [2] | Structure (SMILES) |
| --- | --- | --- | --- | --- | --- |
| 25.8 | 0.442 | 1.3 | 0.328 | 2.73E+10 m/Kg | CC1(C)CCC(CN2CCN(c3ccc(C(=O)NS(=O)(=O)c4ccc(NCC5CCOCC5)c([N+](=O)[O-])c4)c(Oc4cnc5[nH]ccc5c4)c3)CC2)=C(c2ccc(Cl)cc2)C1 [Amorphous venetoclax obtained by reactive agglomeration proc] [4-(4-{[2-(4-chlorophenyl)-4,4dimethylcyclohex-1-en-1-yl]methyl}piperazin-1-yl)-N-({3-nitro-4-[(tetrahydro-2H-pyran-4ylmethyl)amino]phenyl}sulfonyl)-2-(1H-pyrrolo[2,3-1)]pyridin-5-yloxy)benzamide)] |
| 29.8 | 0.289 | 1.4 | 0.203 | Filter media clogged | CC1(C)CCC(CN2CCN(c3ccc(C(=O)NS(=O)(=O)c4ccc(NCC5CCOCC5)c([N+](=O)[O-])c4)c(Oc4cnc5[nH]ccc5c4)c3)CC2)=C(c2ccc(Cl)cc2)C1 [Amorphous venetoclax obtained by Solvent-Anti solvent Proces] [4-(4-{[2-(4-chlorophenyl)-4,4dimethylcyclohex-1-en-1-yl]methyl}piperazin-1-yl)-N-({3-nitro-4-[(tetrahydro-2H-pyran-4ylmethyl)amino]phenyl}sulfonyl)-2-(1H-pyrrolo[2,3-1)]pyridin-5-yloxy)benzamide)] |
